US8697690B2, “Isoindolone M1 receptor positive allosteric modulators” (Merck Sharp & Dohme Corp., priority 2010, dated 2014)

Target: T1, acetylcholine muscarinic M1 receptor (Homo sapiens, UniProt P11229)
T1 construct: expressed in transfected cells; host or cells: CHOnfat cells (CHO with NFAT reporter background), Geneticin-selected
T1 sequence (P11229 1-460): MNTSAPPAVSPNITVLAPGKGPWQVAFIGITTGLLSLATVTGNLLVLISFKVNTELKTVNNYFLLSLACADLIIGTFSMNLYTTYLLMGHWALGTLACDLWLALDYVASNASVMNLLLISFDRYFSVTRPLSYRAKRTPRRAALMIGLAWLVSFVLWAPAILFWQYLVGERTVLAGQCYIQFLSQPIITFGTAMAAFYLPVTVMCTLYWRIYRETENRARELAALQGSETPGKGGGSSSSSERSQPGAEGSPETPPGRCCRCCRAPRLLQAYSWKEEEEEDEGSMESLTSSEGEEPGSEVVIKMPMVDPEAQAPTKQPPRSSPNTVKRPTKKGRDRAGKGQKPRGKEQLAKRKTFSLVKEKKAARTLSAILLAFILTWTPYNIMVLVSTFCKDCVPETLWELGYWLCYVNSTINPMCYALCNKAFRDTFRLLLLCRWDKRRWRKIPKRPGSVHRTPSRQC
Test: muscarinic FLIPR assay: intracellular calcium in CHOnfat/hM1 cells, potentiation of EC20 acetylcholine
Assay type: cell-based
Details: IP = inflection point calculated from FLIPR values, 4 min preincubation, then EC20 acetylcholine (3 nM final)
Method: The assay studies the effect of one or several concentrations of test compounds on basal or acetylcholine-stimulated Ca^2+ levels using FLIPR.
Compounds are prepared and subjected to a preincubation period of 4 min. Thereafter, a single EC20 concentration of acetylcholine is added to each well (3 nM final). The intracellular Ca^2+ level of each sample is measured and compared to an acetylcholine control to determine any modulatory activity.
Cells: CHOnfat/hM1, hM2, hM3 or hM4 cells are plated 24 hr before the assay at a density of 18,000 cells/well (100 μL) in a 384 well plate. CHOnfat/hM1 and CHOnfat/hM3 Growth Medium: 90% DMEM (Hi Glucose); 10% HI FBS; 2 mM L-glutamine; 0.1 mM NEAA; Pen-Strep; and 1 mg/ml Geneticin, are added. For M2Gqi5CHOnfat and M4Gqi5CHOnfat cells, an additional 600 ug/ml hygromycin is added.
Equipment: 384 well plate, 120 μL addition plate; 96-well Whatman 2 ml Uniplate Incubator, 37° C., 5% CO2; Skatron EMBLA-384 Plate Washer; Multimek Pipetting System; Genesis Freedom 200 System; Mosquito System; Temo Nanoliter Pipetting System; and FLIPR^384 Fluorometric Imaging Plate Reader System are used.
Buffers. Assay Buffer: Hanks Balanced Salt Solution, with 20 mM Hepes, 2.5 mM Probenecid (Sigma P-8761) first dissolved in 1 N NaOH, 1% Bovine Serum Albumin (Sigma A-9647). Dye Loading Buffer: Assay Buffer plus 1% Fetal Bovine Serum and Fluo-4AM/Pluronic Acid Mixture. 2 mM Fluo-4AM ester stock in DMSO (Molecular Probes F-14202) Concentration of 2 μM in buffer for a final concentration of 1 μM in Assay. 20% Pluronic Acid Solution stock, with concentration of 0.04% in Buffer, 0.02% in Assay.
65 μL of 2 mM Fluo-4AM are mixed with 130 μL of 20% Pluronic Acid. The resulting solution and 650 μL FBS is added to the assay buffer for a total volume of 65 mL. Positive Controls: 4-Br-A23187: 10 mM in DMSO; final concentration […]. Acetylcholine: 10 mM in water, working stock at both 20 μM and 30 μM in assay buffer, final concentration of 10 μM. This is used to check the maximum stimulation of the CHOK1/hM1 cells. 20 μM (2×) acetylcholine is added in the preincubation part of the assay, and the 30 μM (3×) stock is added in the second part. (EC20)Acetylcholine: 10 mM in water, working stock of 9 nM (3×), and final concentration in assay is 3 nM. This is used after the preincubation with test compounds. Addition of the EC20 Acetylcholine to each well with a test compound will ascertain any modulator activity. 24 wells contain 3 nM Acetylcholine alone as a control.
Determining Activity of Putative Compounds:
Screening Plate Compounds are titrated in 96-well plates (columns 2-11), 100% DMSO, started at a concentration of 15 mM (150× stock concentration), and 3-fold serial dilutions using Genesis Freedom200 System. Four 96-well plates are combined into a 384-well plate using Mosquito Nanoliter Pipetting System by transferring 1 μl of serial diluted compounds to each well, and 1 mM acetylcholine (100× stock concentration) were added as a control. Using Temo, 49 μl assay buffer is added to each well of the 384-well plate right before assay.
In a 96-well Whatman 2 ml Uniplate, 9 nM Acetylcholine (3×) is pipetted into wells corresponding to the screening compounds, and into control wells. The 30 μM acetylcholine control (3×) is added into control wells, and the 3× agonist plate is transferred into a 384 well plate.
Cells are washed three times with 100 μL of buffer, leaving 30 μL of buffer in each well. Using Multimek, 30 μL of Dye Loading Buffer is added into each well and incubated at 37° C., 5% CO2 for up to one hr.
After 60 min, the cells are washed three times with 100 μL of buffer, leaving 30 μL of buffer in each well. The cell plate, screening plate, and agonist addition plates are placed on the platform in the FLIPR and the door closed. A signal test to check background fluorescence and basal fluorescence signal is performed. Laser intensity is adjusted if necessary. […]

EC50 [nM]	SMILES
53	COc1ccc(Cc2cc3c(c4ccccc24)CN([C@H]2CCCC[C@@H]2O)C3=O)cc1 [Example 1, 2-[(1S,2S)-2-Hydroxycyclohexyl]-5-(4-methoxybenzyl)-1,2-dihydro-3H-benzo[e]isoindol-3-one]
41	O=C1c2cc(Cc3ccc(OCc4ccccc4)nc3)c3cccnc3c2CN1[C@H]1CCCC[C@@H]1O [Example 19]
99	CN(C)CCC1c2c(cc(Cc3ccc(Cl)nc3)c3cccnc23)C(=O)N1[C@H]1CCCC[C@@H]1O (stereo partly drawn) [Example 23, 5-[(6-Chloropyridin-3-yl)methyl]-9-[2-(dimethylamino)ethyl]-8-[(1S,2S)-2-hydroxycyclohexyl]-8,9-dihydro-7H-pyrrolo[3,4-h]quinolin-7-one]
12	O=C1c2cc(Cc3ccc(Cl)nc3)c3ccccc3c2CN1[C@H]1CCOC[C@@H]1O [Example 8, 5-[(6-Chloropyridin-3-yl)methyl]-2-[(3R,4S)-3-hydroxytetrahydro-2H-pyran-4-yl]-1,2-dihydro-3H-benzo[e]isoindol-3-one]
